# Measurements published in ChEMBL document CHEMBL3507680, “University of Dundee, Gates Library screen for HepG2 cell viability”.
# Experiment: Human HepG2 cell viability assay in 384 well format
# Assay type: toxicity, cell-based
# Parameters: dose 125 nL, time 70.5 hour; concentration not given beside the values
# Conditions: HepG2 cells, read-out: Inhibition
row,SMILES,cytotoxicity at 70.5 h [%]
1,CC(C)(C)n1ncc2c1CCCC2NCc1cccc2c1OCO2 (stereo not drawn),-1.84
2,CN(C)CC(=O)N1Cc2nnn(C)c2C(COCC2CC2)C1 (stereo not drawn),-11.8
3,Cc1cccc2nc(CNC(=O)N3CCC(N4CC=CC4)C3)cn12 (stereo not drawn),-14.4
4,CCOC(=O)[C@]12CCCN(Cc3nccs3)C[C@H]1CN(CCOC)C2,-1.13
5,CN1CCC(C(=O)NCCC2CN(c3cnn(C)c(=O)c3)CCO2)CC1 (stereo not drawn),-7.81
6,CN(C)c1ncc(CNC(=O)Nc2ccc(C(F)(F)F)cc2)n1C,-2.76
7,Cc1ccc(S(=O)(=O)Cc2nsc(N(C)C)n2)c(C)c1,-6.24
8,CN1CCN(Cc2cnc3n2CCN(C(=O)c2ccnnc2)C3)CC1,-14.6
9,CNc1cc(C2CCCN(S(=O)(=O)c3cn[nH]c3)C2)ccn1 (stereo not drawn),-16.1
10,CCCNC(=O)c1nn(CC)cc1Cl,-3.27
11,CO[C@H]1CN(C(C)C)C[C@@H]1NC(=O)c1cc(-c2ccccc2O)n[nH]1,-1.03
12,CNc1nc(C2CCCN2C(C)=O)nc2c1CN(CCO)CC2 (stereo not drawn),-3.16
13,Cn1cc(Cl)c(C(=O)N2CCc3nc4sccc4c(=O)n3CC2)n1,-2.51
14,c1ccc2sc(NCC3(N4CCOCC4)CCSC3)nc2c1 (stereo not drawn),-4.14
15,CC(C)c1nc(C2CCCN2CCS(=O)(=O)c2ccccc2)no1 (stereo not drawn),2.5
16,CCc1nn(C)c(Cl)c1CN1CCCC2(CC1)CN(C)C(=O)O2 (stereo not drawn),-14.9
17,CC(C)Oc1cc(N2CCC3(CC2)[C@H](O)C[C@@H]3O)nc(N)n1,-1.26
18,CCn1c(Cn2cncn2)nnc1C1CCN(Cc2ccc(C)o2)CC1,-8.85
19,Cn1cccc1C(=O)N1CCC(c2nccn2Cc2ccncc2)CC1,25.5
20,COc1cc(CC(O)CO)c(OC)c2c1OCO2 (stereo not drawn),30.2
21,CC(=O)Nc1nc(C)c(S(=O)(=O)NCCc2ccccn2)s1,-3.16
22,Cc1nccc(C(=O)N2CCCN(Cc3nccn3C(C)C)CC2)n1,-4.19
23,Cc1nc(CCNC(=O)C(N)c2c(C)n[nH]c2C)sc1C (stereo not drawn),-13.1

row,SMILES,cytotoxicity at 70.5 h [%]
1,CCN(Cc1ccc2c(c1)OCO2)C(=O)CCc1c(C)nc(C)[nH]c1=O,-4.97
2,COc1ccccc1OCCCc1cc(C#N)ccn1,6.71
3,COc1ccc(C(=O)C2CCCN(c3cc(N)ncn3)C2)c(C)c1 (stereo not drawn),-10.4
4,c1cnn(CCNCc2cnc(N3CCOCC3)nc2)c1,41.2
5,COc1ccc(C(=O)Nc2ccccc2-c2ccc(=O)n(C)n2)cc1,3.05
6,Cc1nccc(C2CN(Cc3ccc(-c4ccccc4C(=O)O)o3)C2)n1,-2.56
7,CCCn1cnnc1CN(C)C(=O)C1CCCN(C2CCN(C)CC2)C1 (stereo not drawn),-9.33
8,Cc1c(COC(C)C)cccc1NC(=O)N1CCC(N2CCCC2)C1 (stereo not drawn),9
9,COc1nn(C)c2c1CCCN(C(=O)c1cnccn1)C2,1.47
10,CCc1nc(CNCCn2cc(C)cn2)no1,-5.71
11,CN(C)c1ncc2c(n1)CN(C1CCSCC1)C2=O,22.1
12,O=C(Cn1nc2c(cc1=O)CCCC2)N[C@@H](C(=O)O)c1ccccc1,-3.48
13,CCC(=O)N1CCC(n2cc(C(C)(C)O)nn2)CC1,-6.93
14,COCCNc1nc(N2CCCC2)nc2nccnc12,26.5
15,C[S+]([O-])c1nncn1CC(=O)c1ccc(Cl)c(Cl)c1 (stereo not drawn),-3.69
16,CN1CCN(CC2(O)CCCN(S(=O)(=O)c3cn[nH]c3)CC2)CC1 (stereo not drawn),-3.77
17,Cc1nc(C2CCCN2C(=O)c2ccc(F)cc2)ncc1C(N)=O (stereo not drawn),-3.31
18,CCc1cc(NCCNC(C)=O)nc(N2CCCC2)n1,23.3
19,CCc1cc(CN(Cc2cccnc2)C2CN3CCC2CC3)on1 (stereo not drawn),24.6
20,COc1ccc(-c2nc(CNC(C)Cn3cccn3)cs2)cc1 (stereo not drawn),-12.5
21,CC(C(=O)Nc1ccnn1C(C)C)N1CCc2nn(C)c(=O)cc2C1 (stereo not drawn),4.22
22,CCC(C)(C)C(=O)N1CCN(C2=NCC(C)S2)CC1 (stereo not drawn),-8.95
23,CCCn1cc(C(=O)N2CCCC(c3nccn3CCOC)C2)c(C)n1 (stereo not drawn),1.39

row,SMILES,cytotoxicity at 70.5 h [%]
1,c1cnn(Cc2nnc(C3CCN(C4CCOCC4)CC3)n2C2CC2)c1,-10.6
2,Cc1ccc2nc(CN3CCN(C4CCCCC4)C(=O)C3)cc(O)c2c1,-0.969
3,CN(C)c1nccc(N(C)Cc2ncnn2C)n1,-3.04
4,Cc1ccc(NC2CCN(C(=O)COC3CCCCC3)CC2)nn1,20.5
5,COCCCC(=O)NS(=O)(=O)c1ccc2c(c1)OCCCO2,-8.6
6,Clc1cc(NCc2ccncc2)nc2[nH]ccc12,13
7,CC(C)n1cc(CN2CCCN(C(=O)C3CCCN3C)CC2)cn1 (stereo not drawn),-3.1
8,CCc1nc(CCn2ccnc2-c2nccn2C)no1,-7.8
9,O=C(CN1C(=O)CCC1=O)N1CCC(S(=O)(=O)Cc2ccco2)CC1,-3.03
10,CCNc1cc2c(nn1)CCN(C(=O)c1ccsc1)C2,-3.61
11,O=C(COc1ccccc1F)N1CCCCC1c1ccn2ccnc2n1 (stereo not drawn),-11.7
12,Cc1ccc(C(=O)NS(=O)(=O)c2cc(Br)ccc2C)c(=O)[nH]1,-7.4
13,CNC(=O)CN1CCN(C(=O)Nc2ccc(Cl)cc2F)CC1,-1.72
14,COCCN1CC(=O)c2sc(NCc3ccccc3)nc2C1,0.849
15,O=C(Nc1ccccc1F)C1CN(C(=O)c2ccc3c(c2)OCO3)C1,-11.5
16,CCOCCN1CCN(C(C)C(=O)Nc2ccnn2C(C)C)CC1 (stereo not drawn),-3.46
17,CC(C)Oc1ncnc2c1CCN(Cc1ccc(F)cc1)CC2,-5.44
18,COC(=O)N1CC(C)=C(C)CN1C(=O)Nc1cccc(Cl)c1,0.501
19,Cc1noc(C)c1C(=O)N1CCCN(C)c2ccc(Cl)cc21,-3.33
20,CCOc1ccc(C#N)cc1NCC(=O)NC(=O)Nc1ccccc1,-8.89
21,COc1cccc2c1OCCCN(c1nc3c(c(=O)[nH]1)CCNCC3)C2,-3.8
22,Cn1ccnc1-c1nc(NC2CCCC2)ncc1-c1cccc(F)c1,0.205
23,COCCN1CCC(CNC(=O)C2(NC(C)=O)CCCCC2)CC1,-8.37

row,SMILES,cytotoxicity at 70.5 h [%]
1,CCOC(=O)CCn1cnc2onc(-c3cc(OC)ccc3Cl)c2c1=O,-11
2,O=C(c1ccc(-c2ccccc2)[nH]c1=O)N1CCN(C2CC2)CC1,-8.84
3,c1cncc(N2CCO[C@H]3CN(CC4CCOC4)C[C@H]32)c1 (stereo partly drawn),-3.42
4,COc1ccc(Cl)cc1NC(=O)CN1CCc2nc(NC(C)=O)sc2C1,18.9
5,CC(C)c1nnc2n1CCN(C(=O)CN1CCc3sccc3C1)C2,-4.56
6,O=c1oc(-c2cccs2)nn1CC(O)c1ccc(F)cc1 (stereo not drawn),-11.2
7,CC1CCCCN1c1nc2c(c(=O)[nH]1)CCN(Cc1ccc(O)cc1)C2 (stereo not drawn),-8.85
8,COCC1c2nnn(CC3CC3)c2CCN1C(=O)c1cc(C)on1 (stereo not drawn),-12.7
9,Cc1ccc2snc(C(=O)N3CCN(C(=O)NCCC(C)C)CC3)c2c1,-6.08
10,COc1ccc(S(=O)(=O)Nc2cccnc2-n2cncn2)c(C)c1,-8.45
11,CN(CCc1cccs1)C(=O)Nc1ccc2c(c1)C(=O)N(C)CC2,-7.01
12,CN(CC(=O)NC(c1ccc(F)cc1)C(F)(F)F)S(C)(=O)=O (stereo not drawn),-0.794
13,O=C(NCC1CCCCO1)c1ccc(-c2cccs2)[nH]c1=O (stereo not drawn),-0.0205
14,COCCn1cnnc1CN(C)c1nc(N)nc2c1CCCC2,3.03
15,CCc1cc(CNCc2ccccc2N(C)C2CCN(C)CC2)on1,-1.28
16,Cc1nc(CN2CCC3(CC2)CC(=O)N(C)c2ccccc23)cs1,-7.28
17,Cn1cccc1C(=O)N1C[C@H]2CN(Cc3cccnc3)C[C@H]2C1,-1.49
18,Cc1nc(CC(=O)NCc2csc(N3CCCC3)n2)cs1,-4.47
19,COCCN1CCCC(c2nc3c([nH]2)CC(C)(C)CNC3=O)C1 (stereo not drawn),-3
20,CCN(CC)S(=O)(=O)c1cnccc1N1CCN(C(C)C)CC1,7.88
21,Cc1ncnc2c1CCN(C(=O)c1cccnc1)CC2,-6.81
22,CN(C)CC1(O)CCN(C(=O)Cc2ccc3ccccc3c2)C1 (stereo not drawn),-1.7
23,O=C(CO)N1CCc2onc(Cn3cccn3)c2C1,-13.8

row,SMILES,cytotoxicity at 70.5 h [%]
1,OC[C@@H]1CCCN1c1ccc(-c2nc(COc3ccccc3)no2)cn1,1.55
2,CCOc1ccc(CN2CCN(CCOC)[C@@H]3CS(=O)(=O)C[C@@H]32)cc1,5.04
3,CS(=O)(=O)NC[C@]12COC[C@H]1CN(Cc1ccc3c(c1)OCO3)C2,5.12
4,O=C(c1ccc(-n2cnnc2)cc1)N1CCCC(n2ccnc2)C1 (stereo not drawn),-8.88
5,Cc1nonc1NC(=O)C1SCCc2sccc21 (stereo not drawn),32.5
6,COc1ccc(C(=O)Nc2nncs2)cn1,27.2
7,COc1cc(F)c(CN2CCN(CC(C)C)C(=O)C2C)cc1OC (stereo not drawn),-1.44
8,O=c1c2cccnc2cnn1CC(O)c1cccc(Cl)c1 (stereo not drawn),13.3
9,O=C(c1ccc(=O)[nH]n1)N1CCNCC1c1ccccc1 (stereo not drawn),-2.98
10,O[C@H]1CN(Cc2ccc3c(c2)OCCO3)CC[C@@]12CCCO2,-2.15
11,Cc1[nH]c2c(C)cccc2c1CC(=O)N(C)CCN(C)C,-8.69
12,CC(C)=CCN1CCN(C(=O)c2cc(C(C)C)no2)[C@H]2CS(=O)(=O)C[C@H]21,-8.12
13,CCc1oc(C(=O)N(C)Cc2ccncc2)cc1CN(CC)CC,-6.93
14,COc1ccccc1N1CCC(N2CCOC(C(F)(F)F)C2)CC1 (stereo not drawn),-3.26
15,Cc1ccc(-c2noc([C@@H]3C[C@H](NC(=O)CC(C)(C)C)CN3C)n2)cc1,-2
16,CS(=O)(=O)c1ccc(NC(=O)NC2(c3ccccc3)CCC2)cc1,-8.88
17,CC[C@H](C)Nc1nccc(-c2cnc3sc(C)c(C)n3c2=O)n1,23.3
18,CN(C)c1cc2c(nn1)CCN(C(=O)Cc1ccc3c(c1)CCC3)C2,-1.75
19,NC(=O)CCNC(=O)C1(N2CCCCC2)Cc2ccccc2C1,9.16
20,COc1cccc(CN2CCCC2c2c(C)nn(C)c2C)c1 (stereo not drawn),3.04
21,O=C1C(CS(=O)(=O)Nc2ccccc2)=NC(=O)n2cccc21,-7.6
